What was measured:
[1] = system: Murine macrophage-like RAW 264.7 cells; assay: TNF release from RAW 264.7 cells (L929 cytotoxicity bioassay); type: cell-based; settings: for TNF release by synthetic peptide fragment of the B box: 10 μg/ml synthetic peptide, 10 hours (FIG. 3); for TNF release: 1 μg/ml protein, 8 hours, RAW 264.7 cells (FIG. 1)
Experimental: Murine macrophage-like RAW 264.7 cells (American Type Culture Collection, Rockville, Md.) were cultured in RPMI 1640 medium (Life Technologies, Grand Island N.Y.) supplemented with 10% fetal bovine serum (Gemini, Catabasas, Calif.), penicillin and streptomycin (Life Technologies) and were used at 90% confluence in serum-free Opti-MEM I medium (Life Technologies, Grand Island, N.Y.). […] Polymyxin B was not used in experiments of synthetic peptide studies.
TNF release was measured by a standard murine fibroblast L929 (ATCC, American Type Culture Collection, Rockville, Md.) cytotoxicity bioassay (Bianchi et al., Journal of Experimental Medicine 183:927-936, 1996) with the minimum detectable concentration of 30 pg/ml. Recombinant mouse TNF was obtained from R&D system Inc., (Minneapolis, MN). Murine fibroblast L929 cells (ATCC) were cultured in DMEM (Life Technologies, Grand Island, N.Y.) supplemented with 10% fetal bovine serum (Gemini, Catabasas, Calif.), penicillin (50 units/ml) and streptomycin (50 μg/ml) (Life Technologies) in a humidified incubator with 5% CO2.
The effect of the mutants on TNF release from Murine macrophage-like RAW 264.7 cells (ATCC) was carried out as follows. RAW 264.7 cells were cultured in RPMI 1640 medium (Life Technologies, Grand Island N.Y.) supplemented with 10% fetal bovine serum (Gemini, Catabasas, Calif.), penicillin and streptomycin (Life Technologies). Polymyxin (Sigma, St. Louis, Mo.) was added at 100 units/ml to suppress the activity of any contaminating LPS. Cells were incubated with 1 μg/ml of full length (wild-type) HMGB1 and each HMGB1 mutant protein in Opti-MEM I medium for 8 hours, and conditioned supernatants (containing TNF which had been released from the cells) were collected and TNF released from the cells was measured by a standard murine fibroblast L929 (ATCC) cytotoxicity bioassay (Bianchi et al., supra) with the minimum detectable concentration of 30 pg/ml. Recombinant mouse TNF was obtained from R & D Systems Inc., (Minneapolis, Minn.) and used as control in these experiments. Data in FIG. 1 are all presented as mean+SEM unless otherwise indicated. (=6−10).
To further examine the effect of HMGB1 B box on cytokine production, varying amounts of HMGB1 B box were evaluated for the effects on TNF, IL-1B, and IL-6 production in murine macrophage-like RAW 264.7 cells. Conditioned media were harvested and measured for TNF, IL-1β and IL-6 levels. TNF levels were measured as described herein, and IL-1β and IL-6 levels were measured using the mouse IL-1β and IL-6 enzyme-linked immunosorbent assay (ELISA) kits (R&D System Inc., Minneapolis, 1) and N>5 for all experiments.
The kinetics of B box-induced TNF release was also examined. TNF release and TNF mRNA expression was measured in RAW 264.7 cells induced by B box polypeptide or GST tag polypeptide only used as a control (vector) (10 μg/ml) for 0 to 48 hours. Supernatants were analyzed for TNF protein levels by an L929 cytotoxicity assay (N=3-5) as described herein. For mRNA measurement, cells were plated in 100 mm plate and treated in Opti-MEM I medium containing B box polypeptide or the vector alone for 0, 4, 8, or 24 hours, as indicated in FIG. 2D. The vector only sample was assayed at the 4 hour time point. Cells were scraped off the plate and total RNA was isolated by RNAzol B method in accordance with the manufacturer's instructions (Tel-Test “B”, Inc., Friendswood, Tex.). TNF (287 bp) was measured by RNase protection assay (Ambion, Austin, Tex.). Equal loading and the integrity of RNA was verified by ethidium bromide staining of the RNA sample on agarose-formaldehyde gel. […] TNF mRNA expression was maximal at 4 hours and decreased at 8 and 24 hours. […] A similar study was carried out measuring TNF protein released from RAW 264.7 cells 0, 4, 8, 24, 32 or 48 hours after administration of B box or vector only (GST tag), using the L929 cytotoxicity assay described herein. […] Data are representative of three separate experiments. […]

RAW 264.7 cells = settings: polymyxin B alone, 100-1,000 units/ml; cited from earlier work

Row | Molecule | TNF release by synthetic peptide fragment of the B box [1] | TNF release [1] | also measured
1 | 16-25: Synthetic peptide, amino acids 16-25 of the HMGB1 B box (SEQ ID NO: 20) (LFCSEYRPKI; listed as Homo sapiens) | did not induce TNF release | – | –
2 | 30-49: Synthetic peptide, amino acids 30-49 of the HMGB1 B box (SEQ ID NO: 20) (PGLSIGDVAKKLGEMWNNTA; listed as Homo sapiens) | did not induce TNF release | – | –
3 | 45-64: Synthetic peptide, amino acids 45-64 of the HMGB1 B box (SEQ ID NO: 20) (WNNTAADDKQPYEKKAAKLK; listed as Homo sapiens) | did not induce TNF release | – | –
4 | 60-74: Synthetic peptide, amino acids 60-74 of the HMGB1 B box (SEQ ID NO: 20) (AAKLKEKYEKDIAAY; listed as Homo sapiens) | did not induce TNF release | – | –
5 | Polymyxin B | – | – | cell viability (RAW 264.7 cells): did not influence cell viability
6 | fkdpnapkrlpsafflfcse (FKDPNAPKRLPSAFFLFCSE; listed as Homo sapiens) [1-20-mer] | TNF-stimulating activity was retained | – | TNF stimulating activity relative to full length synthetic B box (1-74-mer) or full length HMGB1 ([1]; peptide 10 μg/ml, 10 hours): less potent
7 | wild-type HMGB1: Recombinant full length human HMGB1, SEQ ID NO: 18 (protein, listed as Homo sapiens) MGKGDPKKPTGKMSSYAFFVQTCREEHKKKHPDASVNFSEFSKKCSERWKTMSAKEKGKFEDMAKADKARYEREMKTYIPPKGETKKKFKDPNAPKRLPSAFFLFCSEYRPKIKGEHPGLSIGDVAKKLGEMWNNTAADDKQPYEKKAAKLKEKYEKDIAAYRAKGKPDAAKKGVVKAEKSKKKKEEEEDEEDEEDEEEEEDEEDEEDEEEDDDDE | – | significantly stimulated TNF release | –
8 | carboxyl-truncated HMGB1: Human HMGB1 mutant in which the carboxy terminus was deleted, SEQ ID NO: 19 (protein, listed as Homo sapiens) MGKGDPKKPTGKMSSYAFFVQTCREEHKKKHPDASVNFSEFSKKCSERWKTMSAKEKGKFEDMAKADKARYEREMKTYIPPKGETKKKFKDPNAPKRLPSAFFLFCSEYRPKIKGEHPGLSIGDVAKKLGEMWNNTAADDKQPYEKKAAKLKEKYEKDIAAYRAKGKPDAAKKGVVKAEKSK | – | significantly stimulated TNF release | –
9 | A box: Human HMGB1 mutant containing only the A box (amino terminus + A box), SEQ ID NO: 21 (protein, listed as Homo sapiens) MGKGDPKKPTGKMSSYAFFVQTCREEHKKKHPDASVNFSEFSKKCSERWKTMSAKEKGKFEDMAKADKARYEREMKTYIPPKGET | – | only weakly activated TNF release | –
